Data on one molecule can be found in paper PMC4486092 (Clinical Pharmacokinetics, 2015).

The conditions of data set [1]: not estimated, fixed to estimates of the previous model ref 15; cited from earlier work.
The nature of data set [2]: Population pharmacokinetic analysis of linagliptin plasma concentrations. It counts as in vivo, human (patients with T2DM).
The conditions of data set [3]: single rising-dose study, healthy volunteers, up to a dose of 600 mg ref 5; cited from earlier work.

As to `CC#CCn1c(N2CCC[C@@H](N)C2)nc2c1c(=O)n(Cc1nc(C)c3ccccc3n1)c(=O)n2C` [linagliptin, (R)-8-(3-Amino-piperidin-1-yl)-7-but-2-ynyl-3-methyl-1-(4-methyl-quinazolin-2-ylmethyl)-3,7-dihydro-purine-2,6-dione], the “VP/F: typical volume of distribution of the peripheral compartment” value in data set [1] is 1,650 L. Moreover, the “change in exposure, combination of covariate effects (largest decrease)” value in data set [2] (5 mg, person, 117 kg, GGT 9.4 U/L, pre-dose DPP-4 activity 8,025 RFU) is listed as −26%. Also, in data set [2] (5th percentile of weight), the “increase in linagliptin exposure, impact of weight” value was determined as 5.9%. The “increase in linagliptin exposure with age” value in data set [2] (73-year-old vs 42-year-old patient (95th and 5th percentile of age)) is 13.8%. Further, the “decrease in linagliptin exposure, impact of weight” value in data set [2] (95th percentile of weight) is given as 8.7%. Also, in data set [2] (covariate effect, median weight 88 kg, final model), the “Weight_F: percentage change in F per kg change from median weight of population” value was −0.958. For the same molecule, the “Dose_Ka: percentage change in Ka per dose unit change from the 5 mg dose group” value in data set [2] (covariate effect, final model) is recorded as −6.51. Besides, in data set [2] (final model), the “CL/F: typical clearance of the unbound concentration” value is reported as 258 L/h, the “πF: intra-individual variability in relative bioavailability” value is reported as 40.0 CV %, the “ωCL: inter-individual variability in clearance of the unbound concentration” value is given as 27.5 CV % and the “ωF: inter-individual variability in relative bioavailability” value is given as 47.4 CV %. For the same molecule, in data set [2] (final model), the “ωKa: inter-individual variability in the absorption rate constant” value is listed as 76.4 CV % and the “ωVC: inter-individual variability in the central volume of distribution” value is listed as 24.4 CV %. Besides, the Vd/F (commonly the apparent distribution volume after extravascular dosing) in data set [2] (human, in vivo) was found to be 715 L. Also, the “Ka,1: typical absorption rate constant study 1” value in data set [2] (powder in bottle formulation, oral) stood at 0.933 h⁻¹. Besides, the “linear decrease in bioavailability for every 1 kg increase in weight” value in data set [2] (relative bioavailability, oral) is on record as 0.96%. In data set [2] (tablet formulation 1, oral), the “Ka,2: typical absorption rate constant study 2” value turned out to be 0.795 h⁻¹. In data set [2] (tablet formulation 2, oral), the “Ka,3: typical absorption rate constant studies 3/4” value was determined as 0.441 h⁻¹. Also, the “tolerability of a single dose” value in data set [3] was “well tolerated”.
